Test results reported in US11572341B2, “Biguanide compound and use thereof” (ImmunoMet Therapeutics Inc., priority 2014, dated 2023).
Where a name gives a salt, the structure may show the parent alone. Read-outs that look alike come from different tables or passages of the source.

Experiments:
AMPKa [pT172] = assay: AMPKa activation [pT172] in MCF7 cell; format: cell-based
A549 cell line = assay: Oxygen consumption rate (OCR) and extracellular acidification rate (ECAR) in A549 cells; format: cell-based; details: Homo sapiens, A549, 3 hrs, control group set at 0%, phenformin set at 100%
Procedure: A549 cell line (purchased from ATCC-American Type Culture Collection (ATCC)), a lung cancer cell line, is treated with the compounds and OCR and ECAR of the cells are measured and thereby those compounds which show an improved effect compared to phenformin are selected.
The cells are plated on an XF96 cell culture plate containing RPMI1640 medium at a concentration of 5×10^3 cells and cultured in 37° C., 5% CO2 conditions to allow them to be attached thereto.
After 24 hours, the cells are treated with the drug at a concentration of 10 μM for 2 hours, the existing medium is washed with a medium for XF analysis (15 mM D-glucose, 15 mM sodium pyruvate, 4 mM L-glutamine, pH 7.4) to remove the medium using a Prep station and treated again with the drugs, and cultured in 37° C., non-CO2 conditions in the Prep station for 1 hour. While culturing in the Prep station, a sensor cartridge is calibrated for 1 hour and added into a plate containing cells, and OCR and ECAR analyses are performed.
The measured values of OCR and ECAR of the compounds are calculated with reference to the measured values of OCR and ECAR of the control group which is set at 0% and the values of OCR and ECAR of phenformin, which was used as the reference drug, set at 100%, and those compounds which show an improved effect compared to those of phenformin are selected.
From the primarily-selected compounds, those compounds which show an improved effect are treated at various concentrations (0 μM, 0.5 μM, 1 μM, 5 μM, 10 μM, and 20 μM) and their reactivity according to concentration was obtained.

HCT116 cells = assay: Inhibitory effect against cancer cell proliferation (MTT); format: cell-based, human; details: HCT116, MTT, 48 hours, read-out: IC50 (uM) @ HCT116
Procedure: The formazane crystals thus formed were dissolved using dimethyl sulfoxide (DMSO) and absorbance of the solution was measured at 560 nm. After culturing for 48 hours, […] synthesized in Examples was indicated as cell viability (%) according to each treated concentration.

Compound	AMPKa activation [pT172] (Unit/ml) @ MCF7 cell (AMPKa [pT172]; 50 uM)	Emax at 10 µM (A549 cell line; read-out: ECAR (A549, 3 hrs))	Emax at 10 µM (A549 cell line; read-out: OCR (A549, 3 hrs))	IC50 (HCT116 cells; Homo sapiens, HCT-116)	AMPKa activation [pT172] (Unit/ml) @ MCF7 cell (AMPKa [pT172]; 5 uM)	AMPKa activation [pT172] (Unit/ml) @ MCF7 cell (AMPKa [pT172]; 10 uM)	IC50 (HCT116 cells)
CC(C)NC(=N)NC(=N)NCc1cccnc1.Cl [Example 6, N1-isopropyl-N5-1-(pyridin-3-yl)methyl Biguanide Hydrochloride]	4.8 Unit/ml	9.3%	16.7%				
Cl.N=C(NCCc1ccc(Cl)cc1)NC(=N)N1CCCCC1 [Example 13, N1-piperidin-N5-4-chloro)phenethyl Biguanide Hydrochloride]		61%	-20%	> 100 µM			
Cl.N=C(NCCc1ccccc1Cl)NC(=N)N1CCCCC1 [Example 14, N1-piperidin-N5-2-chloro)phenethyl Biguanide Hydrochloride]		63%	-7%	> 100 µM			
N=C(NC(=N)N1CCCC1)Nc1c(F)cccc1F [Example 80, N1-pyrrolidin-N5-(2,6-difluoro)phenyl Biguanide Hydrochloride]		1%	3%				
CN(C(=N)NC(=N)N1CCCC1)c1ccc(OC(F)(F)F)cc1 [Example 82, N1-pyrrolidin-N5-methyl-N5-(4-trifluoromethoxy)phenyl Biguanide Hydrochloride]		6.9%	7.7%				
CN(C)C(=N)NC(=N)N(C)c1ccc(OC(F)(F)F)cc1 [Example 85, N1,N1-dimethyl-N5-methyl-N5-(4-trifluoromethoxy)phenyl Biguanide Hydrochloride]		31%	-6%				
N=C(N)N/C(=N/CCc1ccccc1)NCCc1cccs1 [Example 103, N1 (2-thiophen-2-yl)ethyl-N2-phenethyl Biguanide Hydrochloride]		-43%	36%				
N=C(N)N/C(=N/CCc1ccc2c(c1)OCO2)NCCc1cccs1 [Example 104, N1-2-thiophen-2-)ethyl-N2-2-benzo[d][1,3]dioxol-5-yl)ethyl Biguanide Hydrochloride]		-8.3%	31.3%				
C/N=C(/NC(=N)N1CCCC1)Nc1ccc(OC(F)(F)F)cc1 [Example 105, N1-(4-trifluoromethoxy)phenyl-N2-methyl-N5-pyrrolidine Biguanide Hydrochloride]		-25.5%	25.1%				
C/N=C(/NC(=N)N1CCCC1)N(C)c1ccc(OC(F)(F)F)cc1 [Example 106, N1-methyl-N1-(4-trifluoromethoxy)phenyl-N2-methyl-N5-pyrrolidine Biguanide Hydrochloride]		-7.5%	-6.6%				
N=C(N)N/C(=N/C1CCCC1)NCc1ccc2c(c1)OCO2 [Example 107, N1-(benzo[d][1,3]dioxol-5-yl)methyl-N2-cyclopentyl Biguanide Hydrochloride]		-8.9%	-4.4%				
Cl.N=C(N)NC(=N)Nc1ccccc1 [Example 113, N1-phenyl Biguanide Hydrochloride]	28.6 Unit/ml	-24%	-3%	72.7 µM	9.9 Unit/ml	10.1 Unit/ml	
N=C(N)NC(=N)Nc1ccc(Br)cc1 [Example 116, N1-(4-bromo)phenyl Biguanide Hydrochloride]	25.9 Unit/ml	-24%	0%	101 µM			
Cl.N=C(N)NC(=N)Nc1ccc(N2CCOCC2)cc1 [Example 122, N1-(4-morpholin-4-yl)phenyl Biguanide Hydrochloride]	5.9 Unit/ml	15.5%	13.3%	> 100 µM			
Cl.N=C(N)NC(=N)N1CCN(c2ccccn2)CC1 [Example 127, N1-4-(pyridin-2-yl)piperazine Biguanide Hydrochloride]	5.8 Unit/ml	7%	10.2%	> 100 µM			
Cl.N=C(N)NC(=N)NCc1ccc(F)cc1 [Example 132, N1-(4-fluoro)benzyl Biguanide Hydrochloride]	8.1 Unit/ml	44.7%	39.3%	> 100 µM	6.1 Unit/ml		
Cl.N=C(N)NC(=N)NCc1ccc(OC(F)(F)F)cc1 [Example 142, N1-(4-trifluoromethoxy)benzyl Biguanide Hydrochloride]	7.2 Unit/ml			73.6 µM	4.7 Unit/ml	6.0 Unit/ml	
Cl.N=C(N)NC(=N)NCCc1ccc2c(c1)OCO2 [Example 143, N1-2-(benzo[d][1,3]dioxol-5-yl)ethyl Biguanide Hydrochloride]	7.2 Unit/ml			124 µM	5.5 Unit/ml	5.7 Unit/ml	
N=C(N)NC(=N)NCc1ccco1 [Example 144, N1-(furan-2-yl)methyl Biguanide Hydrochloride]		7%	47%				
N=C(N)NC(=N)NCc1ccc(O)cc1F [Example 146, N1-(2-fluoro-4-hydroxy)benzyl Biguanide Hydrochloride]		28%	109%				
N=C(N)NC(=N)NCCCc1ccc(F)cc1 [Example 147, N1-(4-fluoro)phenylpropyl Biguanide Hydrochloride]		126%	74%				
COc1ccc(CCCNC(=N)NC(=N)N)cc1 [Example 148, N1-(4-methoxy)phenylpropyl Biguanide Hydrochloride]		160%	1%				
N=C(N)NC(=N)NCc1ccccc1I [Example 149, N1-(2-iodo)benzyl Biguanide Hydrochloride]		36%	20%				
N=C(N)NC(=N)NCc1cccc(I)c1 [Example 150, N1-(3-iodo)benzyl Biguanide Hydrochloride]		125%	105%				
CC1CC(=O)N=C(NC(=N)N2CCCCC2)N1.Cl (centres unmarked) [Example 154, N-(6-methyl-4-oxo-1,4,5-tetrahydropyrimidin-2-yl)piperidin-1-carboximidamide Hydrochloride]	2.8 Unit/ml			> 100 µM	2.9 Unit/ml	2.9 Unit/ml	
CC1CNC(NC(=N)N2CCCCC2)=NC1=O.Cl (centres unmarked) [Example 155, N-(5-methyl-4-oxo-1,4,5,6-tetrahydropyrimidin-2-yl)piperidin-1-carboximidamide Hydrochloride]	3.9 Unit/ml			> 100 µM	3.3 Unit/ml	2.8 Unit/ml	
Cl.N=C(NC1=NC(=O)CCN1)N1CCCCC1 [Example 156, N-(4-oxo-1,4,5,6-tetrahydropyrimidin-2-yl)piperidin-1-carboximidamide Hydrochloride]	4.9 Unit/ml			> 100 µM	3.6 Unit/ml	2.6 Unit/ml	
CC1CC(=O)N=C(NC(=N)N)N1.Cl (centres unmarked) [Example 164, Hydrochloride]		9%	-1%				
N1-(3,5-dimethyl)piperidin-N5-(4-trifluoromethyl)phenyl Biguanide Hydrochloride [Example 63]	cell death				15.1 Unit/ml	22.9 Unit/ml	2.8 µM
